Measured values: US20210267953A1, “SUBSTITUTED OXAZOLIDINONES FOR THE TREATMENT OF MAMMALIAN INFECTIONS” (CADILA HEALTHCARE LIMITED, priority 2018, published 2021)
In brackets after ≈: the same amount, converted by molar mass.

test system: Mycobacterium tuberculosis H37Rv; test: Minimum Inhibitory Concentration (MIC) determination, MABA assay; type: cell-based; settings: Microplate Alamar Blue Assay, M. tuberculosis H37Rv log phase culture in 7H-9 medium, 7 days at 37° C., lowest concentration that prevents colour change blue to pink, read-out: Mtb MIC

`COC(=O)NC[C@H]1CN(c2cc(F)c(N3CCC4(CC3)CS(=O)(=O)C4)c(F)c2)C(=O)O1` [Example 4, (S)-methyl ((3-(4-(2,2-dioxido-2-thia-7-azaspiro[3.5]nonan-7-yl)-3,5-difluorophenyl)-2-oxooxazolidin-5-yl)methyl)carbamate] and `CC(=O)NC[C@H]1CN(c2cc(F)c(N3CCC4(CC3)CS(=O)(=O)C4)c(F)c2)C(=O)O1` [Example 3, (S)—N-((3-(4-(2,2-dioxido-2-thia-7-azaspiro[3.5]nonan-7-yl)-3,5-difluorophenyl)-2-oxooxazolidin-5-yl)methyl)acetamide] are the same in MIC: 1.25 µM (≈ 0.574 µg/mL) for the first, 1.25 µM (≈ 0.554 µg/mL) for the second.

Going from `CC(=O)NC[C@H]1CN(c2cc(F)c(N3CCC(C4CS(=O)(=O)C4)CC3)c(F)c2)C(=O)O1` [Example 9, (S)—N-((3-(4-(4-(1,1-dioxidothietan-3-yl)piperidin-1-yl)-3,5-difluorophenyl)-2-oxooxazolidin-5-yl)methyl)acetamide] to `CC(=O)NC[C@H]1CN(c2cc(F)c(N3CCC(C4COC4)CC3)c(F)c2)C(=O)O1` [Example 8, (S)—N-((3-(3,5-difluoro-4-(4-(oxetan-3-yl)piperidin-1-yl)phenyl)-2-oxooxazolidin-5-yl)methyl)acetamide], the MIC rises from 1.25 µM (≈ 0.572 µg/mL) to 2.5 µM (≈ 1.02 µg/mL) (2-fold).

`CC(=O)NC[C@H]1CN(c2cc(F)c(N3CCC4(CC3)COC4)c(F)c2)C(=O)O1` [Example 6, (S)—N-((3-(3,5-difluoro-4-(2-oxa-7-azaspiro[3.5]nonan-7-yl)phenyl)-2-oxooxazolidin-5-yl)methyl)acetamide] and `CC(=O)NC[C@H]1CN(c2ccc(N3CCC4(CC3)COC4)c(F)c2)C(=O)O1` [Example 7, (S)—N-((3-(3-fluoro-4-(2-oxa-7-azaspiro[3.5]nonan-7-yl)phenyl)-2-oxooxazolidin-5-yl)methyl)acetamide] cannot be ordered by MIC: 1.25 to 2.5 µM (≈ 0.494 to 0.989 µg/mL) for the first, 2.5 µM (≈ 0.944 µg/mL) for the second.

First: CC(=O)NC[C@H]1CN(c2ccc(N3CCC(C4CS(=O)(=O)C4)CC3)c(F)c2)C(=O)O1 [Example 10, (S)—N-((3-(4-(4-(1,1-dioxidothietan-3-yl)piperidin-1-yl)-3-fluorophenyl)-2-oxooxazolidin-5-yl)methyl)acetamide]
Second: CC(=O)NC[C@H]1CN(c2ccc(N3CCC4(CC3)CS(=O)(=O)C4)c(F)c2)C(=O)O1 [Example 5, (S)—N-((3-(4-(2,2-dioxido-2-thia-7-azaspiro[3.5]nonan-7-yl)-3-fluorophenyl)-2-oxooxazolidin-5-yl)methyl)acetamide]
The MIC of the first is 2-fold higher: 2.5 µM (≈ 1.1 µg/mL) for the first, 1.25 µM (≈ 0.532 µg/mL) for the second.

`O=C1O[C@@H](CNc2ccon2)CN1c1cc(F)c(N2CCC3(CC2)CS(=O)(=O)C3)c(F)c1` [Example 2, (S)-3-(4-(2,2-dioxido-2-thia-7-azaspiro[3.5]nonan-7-yl)-3,5-difluorophenyl)-5-((isoxazol-3-ylamino)methyl)oxazolidin-2-one] and `O=C1O[C@@H](Cn2ccnn2)CN1c1cc(F)c(N2CCC3(CC2)CS(=O)(=O)C3)c(F)c1` [Example 1, (R)-5-((1H-1,2,3-triazol-1-yl)methyl)-3-(4-(2,2-dioxido-2-thia-7-azaspiro[3.5]nonan-7-yl)-3,5-difluorophenyl)oxazolidin-2-one] are the same in MIC: 1.25 µM (≈ 0.586 µg/mL) for the first, 1.25 µM (≈ 0.567 µg/mL) for the second.
